The values that follow come from US9370529B2, “Tannin inhibitors of HIV” (priority 2012, dated 2016).

Usually CC50 stands for the concentration at which the toxic effect on the cells reaches its halfway point. One may read the pIC50 as −log10 of the IC50, conventionally taken in molar units.

The structures appear in SMILES notation. pIC50: −log10 of the molar value.

A short description of data set [1]: Cell-viability study (ATPLite Assay). It is filed as cell-based. The settings on record: human; HeLa37 cells, 40 h after treatment initiation. The procedure:
HeLa37 cells were plated and treated with IA or IB as described above. Cell viability was monitored at 40 h after treatment initiation by ATPLite Assay (Packard Biosciences) per manufacturer's instructions.
Background: Cellular ATP, detected with luciferase, serves as a proxy for viable cell number.

The subject of the next data set is CCR5 tropic HIV AD8. Description: HIV-infection study in HeLa37 cells, CCR5 tropic virus. It is filed as cell-based. The settings on record: FIG. 2; equivalent concentrations. On the procedure: (§1) All extracts or fractions were resuspended in DMSO. 2.5×10^2 infectious particles of HIV (MOI=0.01) were combined with the concentrations of IA or IB noted in the figures. The amount of DMSO was adjusted so that equivalent concentrations of DMSO were used in all wells. […] The tannin and HIV mixture was added to 2.5×10^4 cells/well of HeLa37 cells in a 48-well format. The cells were maintained for 40 h at 37° C. in a CO2 incubator. Cells were fixed in 75% acetone/25% water and immunostained for HIV antigens with human anti-HIV antisera (1:500) followed by HRP-conjugated goat anti-human IgG (1:500). 3-amino-9-ethyl-carbazole was used as the horse radish peroxidase substrate. Plates were dried and wells were counted for the number of HIV antigen-positive cells.

For a further data set, the system named is CXCR4 tropic HIV NL4-3. As to the kind of experiment: HIV-infection study in HeLa37 cells (HIV antigen-positive cell count, % control). The settings on record: for TI (therapeutic index, cytotoxicity/antiviral activity): CC50/IC50; for pIC50: Human immunodeficiency virus 1, NL43, HeLa37 cells, 40 h, MOI=0.01, FIG. 1/FIG. 2, read-out: IC50 (anti-HIV activity). The data set is classed as cell-based, HIV-1. On the procedure:
Stocks of HIV-1 were generated by transfecting a 150 cm plate of 80% confluent HEK 293T cells with 75 μg of the HIV molecular clone pNL4-3 by using the CaPO4 procedure of F. L. Graham et al., J. Gen. Viol., 36, 59 (1977). Supernatants were collected at 48-h post-transfection, clarified to remove cell debris and frozen at −80° C. until needed. Virus production was assessed by reverse transcriptase activity in the viral stocks and by the single round of infection assay in HeLa37 cells described below. RT assays were performed as described by R. L. Wiley, PNAS USA, 83, 5038 (1986).
as §1

In data set [1], `CO[C@@H]1OC2COC(=O)c3cc(O)c(O)c(O)c3-c3c(cc(O)c(O)c3O)C(=O)O[C@H]2C(OC(=O)c2cc(O)c(O)c(O)c2)C1OC(=O)c1cc(O)c(O)c(O)c1` (stereo partly drawn) [Tannin IB, (11aR,13S,14R,15S,15aR)-2,3,4,5,6,7-hexahydroxy-13-methoxy-9,17-dioxo-9,11,11a,13,14,15,15a,17-octahydrodibenzo[g,i]pyrano[3,2-b][1,5]dioxacycloundecine-14,15-diyl-bis (3,4,5-trihydroxybenzoate)] had a CC50 at 40 h of over 100000 nM. In the data set on CCR5 tropic HIV AD8, the “Inhibition of CCR5 (AD8) tropic HIV strain” value was “effectively able to inhibit”. Further, in the data set with CXCR4 tropic HIV NL4-3, the “TI (therapeutic index, cytotoxicity/antiviral activity)” value is reported as “about 900” and the pIC50 was about 6.92. Moreover, the “Inhibition of CXCR4 (NL4-3) tropic HIV strain” value in the data set with CXCR4 tropic HIV NL4-3 (FIG. 2) is “effectively able to inhibit”. Moreover, the “Enhancement of the antiviral activity of AMD3100” value in the data set on CXCR4 tropic HIV NL4-3 (combination with 3 μM AMD3100, increasing concentrations of IB, HIV NL-4-3, FIG. 3) is recorded as “more than a log”.

Take `CO[C@@H]1OC2COC(=O)c3cc(O)c(O)c(O)c3-c3c(cc(O)c(O)c3O)C(=O)O[C@H]2C(O)C1O` (stereo partly drawn) [Tannin IA, (11aR,13S,14R,15R,15aS)-2,3,4,5,6,7,14,15-octahydroxy-13-methoxy-11,11a,13,14,15,15a-hexahydrodibenzo[g,i]pyrano[3,2-b][1,5]dioxacycloundecine-9,17-dione]: the CC50 at 40 h in data set [1] was about 100000 nM. Moreover, in the data set on CXCR4 tropic HIV NL4-3, the “TI (therapeutic index, cytotoxicity/antiviral activity)” value is about 909 and the pIC50 is about 6.96.
